The structures appear in SMILES notation.

This experiment relates to RKO. The experiment in a line: Alamar blue cell proliferation assay, RKO. The note with it: 72 h, read-out: IC50 Assay B (Alamar blue cell proliferation). It is filed as cell-based, human. The procedure:
The effects of RgA on cell growth, survival, and cell death was then determined. […] Treatment with 5 μM of RgA caused an increase in G1 phase by approximately 23% in comparison to control and approximately 7% and 17% decreases in cells in S and G2/M phases, respectively. The induction in G1 phase cell cycle arrest by RgA is dose-dependent (FIG. 5A, FIG. 16). […] Jones and Thompson, Genes Dev. 2009, 23, 537-548. […] The IC50 values of RgA against several human cancer cell lines also was determined using the alamar blue cell proliferation assay.
Cells were seeded into a 96-well plate (Costar) in 180 μL culture media. After an overnight recovery, drugs were added and incubated for 72 h. After drug incubation, cells were added with 20 μL of alamar blue reagent and the plates were incubated at 37° C. for 6 h before reading the fluorescence (544 nm Ex/590 nm Em) with a plate reader. GraphPad Prism (v4.03) software was used to determine IC50 values using a four parameter logistic regression.
(Resazurin is reduced to fluorescent resorufin, in cell work by metabolically active cells.)

Take `CCC(C)C1C(=O)NCC(=O)N(C)CCC=CC(=O)OCC(C)(C)C(=O)C(=O)N2CCCCC2C(=O)OC(CCc2ccc(OC)c(OC)c2)c2cccc(c2)NC(=O)CCC(=O)N(C)C(CC(C)C)C(=O)NC(Cc2ccccc2)C(=O)N1C` (stereo not shown) [JW11-D2, Rapaglutin A]: the IC50 stood at 114 nM.

These data come from patent US12649980B2, “Three-dimensional surface for protein and small molecule microarrays” (The Johns Hopkins University, priority 2019, dated 2026).
